Paper PMC5914168 (ChemMedChem, 2017)

How the values were obtained:
[1] = target: BMP2K kinase domain (38-345) (Homo sapiens, UniProt Q9NSY1); assay: TR-FRET ligand binding displacement assay, BMP2K
[2] = target: T1, GAK kinase domain (12-347) (Homo sapiens, UniProt O14976); assay: TR-FRET ligand binding displacement assay, GAK
T1 sequence (O14976 12-347): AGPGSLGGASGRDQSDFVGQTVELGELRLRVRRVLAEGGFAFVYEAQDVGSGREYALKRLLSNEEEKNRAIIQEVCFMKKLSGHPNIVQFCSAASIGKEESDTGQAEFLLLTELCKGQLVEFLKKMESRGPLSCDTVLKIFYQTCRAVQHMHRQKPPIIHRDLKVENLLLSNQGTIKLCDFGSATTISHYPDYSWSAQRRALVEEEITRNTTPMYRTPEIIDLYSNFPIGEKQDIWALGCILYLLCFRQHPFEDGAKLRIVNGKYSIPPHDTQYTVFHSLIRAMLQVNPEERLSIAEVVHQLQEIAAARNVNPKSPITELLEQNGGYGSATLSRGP

[3] = target: STK16 kinase domain (13-305) (Homo sapiens, UniProt O75716); assay: TR-FRET ligand binding displacement assay, STK16
[4] = target: AAK1 kinase domain (31-396) (Homo sapiens, UniProt Q2M2I8); assay: TR-FRET ligand binding displacement assay, AAK1
[5] = target: T2, N-terminal Nano Luciferase/GAK fusion (NL-GAK) in HEK293 cells (Homo sapiens, UniProt O14976); assay: GAK nanoBRET cellular target engagement assay
T2 sequence (O14976 1-1311): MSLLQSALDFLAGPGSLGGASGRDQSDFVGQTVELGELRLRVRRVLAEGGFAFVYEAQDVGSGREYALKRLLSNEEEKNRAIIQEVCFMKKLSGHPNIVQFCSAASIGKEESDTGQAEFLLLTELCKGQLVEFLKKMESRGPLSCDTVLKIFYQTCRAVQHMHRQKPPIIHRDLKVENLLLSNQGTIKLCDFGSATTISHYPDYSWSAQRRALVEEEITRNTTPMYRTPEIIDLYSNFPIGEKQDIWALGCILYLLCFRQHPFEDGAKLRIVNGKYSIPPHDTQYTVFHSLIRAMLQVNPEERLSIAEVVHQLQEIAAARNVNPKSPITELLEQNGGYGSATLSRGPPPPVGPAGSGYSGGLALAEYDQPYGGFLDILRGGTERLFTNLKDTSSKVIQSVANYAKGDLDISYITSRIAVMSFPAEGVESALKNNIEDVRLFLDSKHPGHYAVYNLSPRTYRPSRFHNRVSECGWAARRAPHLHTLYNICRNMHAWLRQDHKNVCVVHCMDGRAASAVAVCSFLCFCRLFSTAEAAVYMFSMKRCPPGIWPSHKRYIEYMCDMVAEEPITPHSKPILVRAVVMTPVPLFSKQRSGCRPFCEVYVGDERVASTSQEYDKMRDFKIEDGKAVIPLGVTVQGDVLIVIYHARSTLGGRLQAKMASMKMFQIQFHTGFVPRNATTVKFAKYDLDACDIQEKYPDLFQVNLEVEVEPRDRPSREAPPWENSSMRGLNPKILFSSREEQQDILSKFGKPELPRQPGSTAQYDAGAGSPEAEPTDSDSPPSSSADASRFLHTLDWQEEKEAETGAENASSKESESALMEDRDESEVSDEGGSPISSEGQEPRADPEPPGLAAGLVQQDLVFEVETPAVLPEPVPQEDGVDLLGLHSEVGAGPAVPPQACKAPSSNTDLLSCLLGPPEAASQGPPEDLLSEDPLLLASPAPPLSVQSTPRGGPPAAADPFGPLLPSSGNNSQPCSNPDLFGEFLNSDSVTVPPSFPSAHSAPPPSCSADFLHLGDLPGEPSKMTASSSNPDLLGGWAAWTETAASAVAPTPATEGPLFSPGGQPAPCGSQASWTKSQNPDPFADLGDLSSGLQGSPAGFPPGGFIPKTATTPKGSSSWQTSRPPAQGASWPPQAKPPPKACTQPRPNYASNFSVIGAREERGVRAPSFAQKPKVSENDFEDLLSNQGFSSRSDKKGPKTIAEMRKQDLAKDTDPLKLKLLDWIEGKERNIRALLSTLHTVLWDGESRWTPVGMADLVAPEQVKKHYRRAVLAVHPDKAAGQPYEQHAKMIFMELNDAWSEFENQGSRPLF

[6] = target: T3, kinases in SUM159 cell lysate (>240 protein kinases profiled) (Homo sapiens, UniProt O14976); assay: Multiplexed inhibitor beads / mass spectrometry; assay type: binding; details: SUM159 lysate, highest concentration (10 nM), 30 minutes on ice
T3 sequence (O14976 1-1311): T2 sequence (O14976 1-1311)

[7] = tested on: kinases in SUM159 cell lysate (>240 protein kinases profiled); assay: Multiplexed inhibitor beads / mass spectrometry; assay type: binding; details: SUM159 cell lysate
GAK = details: cited from earlier work

STK16 kinase domain (13-305), sequence (O75716 13-305): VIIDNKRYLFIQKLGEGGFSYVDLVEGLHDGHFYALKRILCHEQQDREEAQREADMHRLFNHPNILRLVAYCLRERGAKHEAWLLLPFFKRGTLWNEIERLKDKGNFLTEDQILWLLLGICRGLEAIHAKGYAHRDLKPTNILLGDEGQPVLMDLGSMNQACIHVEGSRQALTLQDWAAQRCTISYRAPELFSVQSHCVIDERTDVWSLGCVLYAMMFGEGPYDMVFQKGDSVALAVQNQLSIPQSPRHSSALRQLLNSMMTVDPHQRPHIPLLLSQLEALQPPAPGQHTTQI
BMP2K kinase domain (38-345), sequence (Q9NSY1 38-345): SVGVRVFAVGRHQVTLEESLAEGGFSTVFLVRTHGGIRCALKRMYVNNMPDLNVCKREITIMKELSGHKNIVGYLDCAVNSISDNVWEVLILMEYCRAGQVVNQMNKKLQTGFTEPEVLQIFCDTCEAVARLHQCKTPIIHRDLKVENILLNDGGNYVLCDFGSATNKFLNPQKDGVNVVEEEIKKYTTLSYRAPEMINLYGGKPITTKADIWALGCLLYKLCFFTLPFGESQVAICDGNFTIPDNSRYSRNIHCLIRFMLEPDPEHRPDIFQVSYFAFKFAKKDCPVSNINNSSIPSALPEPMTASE
AAK1 kinase domain (31-396), sequence (Q2M2I8 31-396): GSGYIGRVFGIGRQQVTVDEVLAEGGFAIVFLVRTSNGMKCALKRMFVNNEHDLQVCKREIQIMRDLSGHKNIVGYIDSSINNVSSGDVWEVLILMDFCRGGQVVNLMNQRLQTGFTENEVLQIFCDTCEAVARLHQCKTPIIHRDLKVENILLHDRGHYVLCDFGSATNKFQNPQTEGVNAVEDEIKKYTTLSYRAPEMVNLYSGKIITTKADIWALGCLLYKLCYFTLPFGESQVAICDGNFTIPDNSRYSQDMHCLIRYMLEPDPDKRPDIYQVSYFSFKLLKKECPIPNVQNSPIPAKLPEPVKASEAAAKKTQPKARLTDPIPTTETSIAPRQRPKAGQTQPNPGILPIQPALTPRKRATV

SMILES: COc1cc(Nc2ccnc3cc(F)cc(F)c23)cc(OC)c1OC [Compound 44, 5,7-Difluoro-N-(3,4,5-trimethoxyphenyl)quinolin-4-amine]
- Ki [1]: > 100 µM
- Ki [2]: 140 nM
- NAK selectivity (ratio of GAK Ki and Ki of nearest NAK family member) ([2]; selectivity against the nearest NAK family member): >720
- Ki [3]: > 100 µM
- Ki [4]: > 100 µM
- IC50 ([5]; NanoBRET GAK IC50, HEK293 cells, 8-point dose response, average of 2 experiments): 4.4 µM

SMILES: COc1cc2nccc(Nc3cc(OC)c(OC)c(OC)c3)c2cc1OC [Compound 49, 6,7-Dimethoxy-N-(3,4,5-trimethoxyphenyl)quinolin-4-amine]
- Ki [3]: > 100 µM
- GAK depletion in MIB/MS [6]: ~10 fold
- kinases bound in MIB/MS (kinome selectivity) [7]: binding to only GAK and RIPK2
- fold cellular potency increase ([5]; nanoBRET, over the single methoxy substitutions 48 & 50): 14–17 fold

SMILES: COc1cc(Nc2c(C#N)cnc3cc(OCCCN4CCN(C)CC4)c(OC)cc23)c(Cl)cc1Cl [bosutinib]
- off target activity on GAK, potency (GAK): low nanomolar range

SMILES: Cc1nc(Nc2ncc(C(=O)Nc3c(C)cccc3Cl)s2)cc(N2CCN(CCO)CC2)n1 [dasatinib]
- off target activity on GAK, potency (GAK): low nanomolar range

SMILES: C#Cc1cccc(Nc2ncnc3cc(OCCOC)c(OCCOC)cc23)c1 [erlotinib]
- off target activity on GAK, potency (GAK): low nanomolar range

SMILES: COc1cc2ncnc(Nc3ccc(F)c(Cl)c3)c2cc1OCCCN1CCOCC1 [gefitinib]
- off target activity on GAK, potency (GAK): low nanomolar range
